Experimental data: article PMC12439166, “Dietary flavonoids form supramolecular assemblies, alter biochemistry, and enhance cell resilience” (Frontiers in Nutrition, 2025)

Molecular target: T1, Arginase 1 (ARG1) (Homo sapiens, UniProt P05089)
T1 sequence (P05089 1-322): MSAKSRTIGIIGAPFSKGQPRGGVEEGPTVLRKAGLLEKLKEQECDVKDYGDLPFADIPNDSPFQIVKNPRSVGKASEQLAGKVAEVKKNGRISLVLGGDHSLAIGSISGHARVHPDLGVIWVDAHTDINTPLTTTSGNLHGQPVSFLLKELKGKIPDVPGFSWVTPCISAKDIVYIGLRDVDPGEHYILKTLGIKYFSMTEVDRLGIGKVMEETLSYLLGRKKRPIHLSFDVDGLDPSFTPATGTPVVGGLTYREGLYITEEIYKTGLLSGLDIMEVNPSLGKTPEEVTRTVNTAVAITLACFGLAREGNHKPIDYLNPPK
Assay: Enzyme activity assay (SAMDI-MS), Arginase 1
Type: biochemical
Details: 10 concentrations, 5 nM to 100 μM, compounds incubated with enzyme 30 min, result in words
Experimental: Enzyme screens were performed by SAMDI Tech (contract research organization); enzyme assays were performed in a 20 μL volume in 384-well low-volume polypropylene microtiter plates (Greiner Bio-One) at room temperature. The enzymes [Arginase 1 (ARG1), Lysine demethylase 4C (KDM4C), MAP/microtubule affinity-regulating kinase 4 (MARK4), Histone-Lysine N-methyltransferase (NSD2), Tyrosine-protein phosphatase non-receptor type 1 (PTP1B), and Sirtuin-3 (SIRT3)] were incubated with compounds for 30 min prior to initiation of the reaction by the addition of substrate and cofactors (if required). […] SAMDI MS was performed using reflector positive mode on an AB Sciex TOF-TOF 5800 System (AB Sciex, Framingham, MA) with 400 shots/spot analyzed in a random raster sampling. For data analysis, the area under the curves (AUCs) for the product peak and substrate peak were calculated using the TOF/TOF Series Explorer (AB Sciex), and the amount of product formed was calculated using the equation AUC product / (AUC product + AUC Substrate). […]
IC50 values of enzyme inhibition. Inhibition of the enzymes was measured at 10 concentration values in the range of 5 nM to 100 μM for each compound and enzyme, with two technical replicates; the percent inhibition values were determined by SAMDI software. […]

## O=c1c(O)c(-c2ccc(O)c(O)c2)oc2cc(O)cc(O)c12 [quercetin]
Listed as Quercetin
  inhibition of enzyme activity, ARG1: inhibited
Listed as Quercitin
  inhibition of enzyme activity, ARG1: concentration-dependent inhibition
